Here are results for 3 molecules from patent publication US8420657B2 (Novartis AG, priority 2008, dated 2013).

Format in all cases: biochemical
Assay [1] has as its target T1, GST-JAK2(808-1132) (Homo sapiens, UniProt O60674).
T1 construct: GST-JAK2(808-1132); purchased Invitrogen (Carlsbad, USA) #4288
Kind of assay: JAK2 kinase assay (Caliper mobility shift, LabChip 3000). In a few lines: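 Recombinant GST-JAK2(808-1132) kinase domain with FITC-labelled JAK3tide peptide substrate and ATP; 60 min at 30 °C, EDTA stop. Substrate/product ratio read by microfluidic mobility shift; compounds at 8 final concentrations, 10 to 0.003 μM.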

Assay [2] deals with T2, cMet (Homo sapiens, UniProt P08581).
T2 construct: using the recombinant domains of cMet, cKit, ALK and PDGFRalpha kinases
Kind of assay: cMet LanthaScreen TR-FRET kinase phosphorylation assay. The note with it: recombinant kinase domain. The method, then:
(§1) The compounds are assayed in an antibody based kinase phosphorylation assay using the recombinant domains of cMet, cKit, ALK and PDGFRalpha kinases and a generic phospho-tyrosine peptide substrate. LanthaScreen™ is the detection of Time-Resolved Fluorescence Resonance Energy Transfer (TR-FRET) using lanthanide chelates to measure interactions between various binding partners. In a TR-FRET kinase assay, a long-lifetime lanthanide donor species is conjugated to an antibody that specifically binds to a phosphorylated product of a kinase reaction that is labeled with a suitable acceptor fluorophore. This antibody-mediated interaction brings the lanthanide donor and the acceptor into proximity such that resonance energy transfer can take place, resulting in a detectible increase in FRET. The LanthaScreen is run at ambient temperature and terminated by the addition of stop solution, followed by Tb-labeled P-20 antibody. After incubating in the dark, the plates are transferred to a fluorescence reader for counting. The effect of compound on the enzymatic activity is in all assays obtained from the linear progress curves and determined from one reading (end point measurement).

For assay [3], the target named is T3, cKit (Homo sapiens, UniProt P10721).
T3 construct: using the recombinant domains of cMet, cKit, ALK and PDGFRalpha kinases
Kind of assay: cKit LanthaScreen TR-FRET kinase phosphorylation assay. The note with it: recombinant kinase domain. As for the experimental part:
as §1

The target in assay [4] is T4, ALK (Homo sapiens, UniProt Q9UM73).
T4 construct: using the recombinant domains of cMet, cKit, ALK and PDGFRalpha kinases
As to the kind of experiment: ALK LanthaScreen TR-FRET kinase phosphorylation assay. The note with it: recombinant kinase domain. As for the experimental part:
as §1

The target of assay [5] is T5, PDGFRalpha (Homo sapiens, UniProt P16234).
T5 construct: using the recombinant domains of cMet, cKit, ALK and PDGFRalpha kinases
As to the kind of experiment: PDGFRalpha LanthaScreen TR-FRET kinase phosphorylation assay. The note with it: recombinant kinase domain, read-out: PDGFRa/IC50. As for the experimental part: as §1

Read-outs that look alike come from different tables or passages of the source.

T5 sequence (P16234 593-954 limits assumed, species assumed): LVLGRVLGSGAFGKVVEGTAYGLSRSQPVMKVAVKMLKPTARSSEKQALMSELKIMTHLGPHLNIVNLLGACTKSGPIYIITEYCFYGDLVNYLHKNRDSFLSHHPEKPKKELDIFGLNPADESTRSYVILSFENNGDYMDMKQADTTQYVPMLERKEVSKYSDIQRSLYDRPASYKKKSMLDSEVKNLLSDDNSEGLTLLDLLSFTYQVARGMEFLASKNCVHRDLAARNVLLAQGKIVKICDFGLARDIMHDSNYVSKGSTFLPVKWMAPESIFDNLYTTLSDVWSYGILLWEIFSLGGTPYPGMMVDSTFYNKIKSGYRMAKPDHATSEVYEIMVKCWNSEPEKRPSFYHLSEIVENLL
T1 sequence (O60674 808-1132): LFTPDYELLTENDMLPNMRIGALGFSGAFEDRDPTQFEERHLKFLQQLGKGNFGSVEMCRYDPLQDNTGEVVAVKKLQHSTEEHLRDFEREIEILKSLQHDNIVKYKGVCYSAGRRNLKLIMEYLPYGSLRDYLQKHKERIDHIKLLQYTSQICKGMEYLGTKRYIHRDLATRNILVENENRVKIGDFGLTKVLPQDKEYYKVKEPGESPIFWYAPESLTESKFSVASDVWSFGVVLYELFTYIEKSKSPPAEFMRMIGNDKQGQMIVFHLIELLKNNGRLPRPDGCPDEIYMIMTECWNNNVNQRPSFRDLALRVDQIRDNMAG
T4 sequence (Q9UM73 1116-1392 limits assumed, species assumed): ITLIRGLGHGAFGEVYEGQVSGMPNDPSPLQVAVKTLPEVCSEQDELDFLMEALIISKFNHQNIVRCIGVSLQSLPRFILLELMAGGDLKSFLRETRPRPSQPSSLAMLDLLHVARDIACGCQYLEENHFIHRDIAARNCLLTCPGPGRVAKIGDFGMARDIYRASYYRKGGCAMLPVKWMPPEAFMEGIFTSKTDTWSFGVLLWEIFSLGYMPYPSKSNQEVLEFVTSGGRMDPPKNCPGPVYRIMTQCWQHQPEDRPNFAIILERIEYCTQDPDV
T2 sequence (P08581 1078-1345 limits assumed): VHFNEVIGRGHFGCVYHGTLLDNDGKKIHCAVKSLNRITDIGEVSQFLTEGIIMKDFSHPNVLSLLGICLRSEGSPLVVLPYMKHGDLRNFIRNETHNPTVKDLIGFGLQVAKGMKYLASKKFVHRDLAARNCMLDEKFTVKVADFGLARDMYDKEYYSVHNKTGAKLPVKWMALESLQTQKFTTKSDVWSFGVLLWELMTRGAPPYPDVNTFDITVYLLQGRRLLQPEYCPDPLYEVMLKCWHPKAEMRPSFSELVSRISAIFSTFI
T3 sequence (P10721 589-937 limits assumed): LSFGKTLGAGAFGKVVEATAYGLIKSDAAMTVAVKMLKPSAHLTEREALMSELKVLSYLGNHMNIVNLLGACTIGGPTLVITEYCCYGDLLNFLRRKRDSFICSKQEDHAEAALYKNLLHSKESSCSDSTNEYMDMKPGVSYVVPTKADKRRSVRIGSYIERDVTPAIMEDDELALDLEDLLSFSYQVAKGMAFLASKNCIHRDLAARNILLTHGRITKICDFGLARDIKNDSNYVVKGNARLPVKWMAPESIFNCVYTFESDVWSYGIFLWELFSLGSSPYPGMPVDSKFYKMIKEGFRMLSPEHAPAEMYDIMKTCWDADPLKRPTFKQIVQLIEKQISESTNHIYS

As for `N#Cc1ccc(Nc2ncc3ccn(-c4ccc(C(=O)N5CCOCC5)cc4)c3n2)cn1` [Example 235, 5-{7-[4-(Morpholine-4-carbonyl)-phenyl]-7H-pyrrolo[2,3-d]pyrimidin-2-ylamino}-pyridine-2-carbonitrile], the IC50 in assay [1] was 0.056 µM; in assay [1] (Table 3) it was 0.056 µM; in assay [2], greater than 10 µM; in assay [3], greater than 10 µM; in assay [4], greater than 10 µM; in assay [5] it was greater than 10 µM.
With `OCCN1CCOC[C@@H]1c1ccc(Nc2ncc3ccn(-c4cc(F)c(CN5CCOCC5)c(F)c4)c3n2)cc1` [Example 521, 2-((S)-3-{4-[7-(3,5-difluoro-4-morpholin-4-ylmethyl-phenyl)-7H-pyrrolo[2,3-d]pyrimidin-2-ylamino]-phenyl}-morpholin-4-yl)-ethanol], the IC50 in assay [1] is no more than 0.003 µM; in assay [1] (Table 3), less than 0.003 µM; in assay [2], 3.5 µM; in assay [3], 2.9 µM; in assay [4], greater than 10 µM; in assay [5], 2.8 µM.
For `CN1CCN(c2ccc(Nc3ncc4ccn(-c5ccc(C#N)cc5)c4n3)cn2)CC1` [Example 278, 4-{2-[6-(4-Methyl-piperazin-1-yl)-pyridin-3-ylamino]-pyrrolo[2,3-d]pyrimidin-7-yl}-benzonitrile], the IC50 in assay [1] is 0.011 µM; in assay [1] (Table 3), 0.011 µM; in assay [2], 1.4 µM; in assay [3], 1.35 µM; in assay [4], greater than 10 µM; in assay [5] it was 2.65 µM.
